# Experimental data published in patent publication USRE30413E, “Bleomycinic acid and process for preparing thereof” (Zaidan Hojin Biseibutsu Kagaku Kenkyu Kai, priority 1971, dated 1980).
# Read-outs that look alike come from different tables or passages of the source.
# Legend:
# HeLa (S3 bb cell line) = details: third day after addition
# Description: wherein the inhibitory effect= [formula] Co: relative number of cell on the first day t3 : relative number of cell on the third day after the addition of a bleomycin (3 mcg/ml in final)
# C3 : relative number of cell in negative control on the third day
# Mycobacterium 607 = assay: cup test, antimicrobial activity to Mycobacterium 607; type: cell-based; details: standard bleomycin A2 = 1000 μ/mg
# Description: The endpoint of the hydrolysis reaction can be determined by a reaction in antimicrobial activity of the bleomycin substrate as measured by conventional cup tests using Mycobacterium 607, or by a change in the Rf value during thin layer chromatography.
# ICR-JCL male mice = details: for Total, degree of fibrosis ++: number of mice with grade ++, fourth Total column; for Total, degree of fibrosis -: number of mice with grade -, first Total column; for Total, degree of fibrosis ±: number of mice with grade ±, second Total column
# Description: The mice were bred for 5 weeks after the final administration and were then dissected. The right and left lungs were observed by microscopic examination.
# [1] = solubility of the hydrochloride in solvents; type: physicochemical
molecule,measurement,setting,value
benzylamino-bleomycin,Inhibitory effect,HeLa (S3 bb cell line); 1.5 mcg/ml,38
same,Inhibitory effect,HeLa (S3 bb cell line); 3 mcg/ml,73
same,Inhibitory effect,HeLa (S3 bb cell line); 6 mcg/ml,92
"Cc1c(N)nc([C@H](CC(N)=O)NC[C@H](N)C(N)=O)nc1C(=O)N[C@H](C(=O)N[C@H](C)[C@@H](O)[C@H](C)C(=O)N[C@H](C(=O)NCCc1nc(-c2nc(C(=O)NCCC[S+](C)C)cs2)cs1)[C@@H](C)O)[C@@H](O[C@@H]1O[C@@H](CO)[C@@H](O)[C@H](O)[C@@H]1O[C@H]1O[C@H](CO)[C@@H](O)[C@H](OC(N)=O)[C@@H]1O)c1c[nH]cn1.[Br-] [bleomycin A2, 3-dimethylsulfopropylamino-bleomycin]",antimicrobial activity to Mycobacterium 607,Mycobacterium 607,1000 μ/mg
"Cc1c(N)nc([C@H](CC(N)=O)NC[C@H](N)C(N)=O)nc1C(=O)N[C@H](C(=O)N[C@H](C)[C@@H](O)[C@H](C)C(=O)N[C@H](C(=O)NCCc1nc(-c2nc(C(=O)NCCCCN=C(N)N)cs2)cs1)[C@@H](C)O)[C@@H](O[C@@H]1O[C@@H](CO)[C@@H](O)[C@H](O)[C@@H]1O[C@H]1O[C@H](CO)[C@@H](O)[C@H](OC(N)=O)[C@@H]1O)c1cnc[nH]1 [bleomycin B2, 4-guanidinobutylamino-bleomycin]","Total, degree of fibrosis ++",ICR-JCL male mice; lung L,1
same,"Total, degree of fibrosis -",ICR-JCL male mice; lung L,5
same,"Total, degree of fibrosis ±",ICR-JCL male mice; lung L,1
same,"Total, degree of fibrosis ++",ICR-JCL male mice; lung R,0
same,"Total, degree of fibrosis -",ICR-JCL male mice; lung R,4
same,"Total, degree of fibrosis ±",ICR-JCL male mice; lung R,3
same,Inhibitory effect,cell culture of Yoshida; 0.625 mcg/ml,8.6
same,Inhibitory effect,cell culture of Yoshida; 1.25 mcg/ml,34.0
same,Inhibitory effect,cell culture of Yoshida; 2.5 mcg/ml,56.0
same,Inhibitory effect,HeLa (S3 bb cell line); 1.5 mcg/ml,33
same,Inhibitory effect,HeLa (S3 bb cell line); 3 mcg/ml,64
hydrochloride of bleomycinic acid,solubility,[1]; acetic acid,sparingly soluble
same,solubility,[1]; acetone,insoluble
same,solubility,[1]; dimethylsulfoxide,sparingly soluble
same,solubility,[1]; ethanol,insoluble
same,solubility,[1]; ether,insoluble
same,solubility,[1]; ethyl acetate,insoluble
same,solubility,[1]; methanol,sparingly soluble
same,solubility,[1]; water,soluble
